Like-named read-outs stand apart in the source and are kept apart here.
Tests used:
CO2 responsive neurons = settings: cited from earlier work
Or59b, ab2A = target: T1, Or59b, ab2A (Drosophila melanogaster, UniProt Q9W1P8); test: single-sensillum electrophysiology; type: in vivo; settings: odorant at 10^-2
T1 construct: The 9 Ors tested are expressed in well-defined olfactory receptor neurons (ORNs) housed within the large and small basiconic sensilla; from tissue; host or cells: D. melanogaster antenna, ab2A olfactory receptor neuron (in vivo recording)
T1 sequence (Q9W1P8 1-398): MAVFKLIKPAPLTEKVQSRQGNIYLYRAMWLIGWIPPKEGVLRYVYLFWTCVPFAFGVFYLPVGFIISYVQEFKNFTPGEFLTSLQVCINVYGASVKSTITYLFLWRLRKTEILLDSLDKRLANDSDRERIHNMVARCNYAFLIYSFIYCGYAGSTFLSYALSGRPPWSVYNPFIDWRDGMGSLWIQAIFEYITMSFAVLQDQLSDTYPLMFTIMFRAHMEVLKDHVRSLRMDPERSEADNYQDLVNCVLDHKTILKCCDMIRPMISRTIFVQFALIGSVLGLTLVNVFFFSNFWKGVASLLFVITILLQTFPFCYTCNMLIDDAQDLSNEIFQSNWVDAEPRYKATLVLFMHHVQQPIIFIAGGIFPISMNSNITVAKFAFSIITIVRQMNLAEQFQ
T1 sequence (Q9VNB5 1-486 partner): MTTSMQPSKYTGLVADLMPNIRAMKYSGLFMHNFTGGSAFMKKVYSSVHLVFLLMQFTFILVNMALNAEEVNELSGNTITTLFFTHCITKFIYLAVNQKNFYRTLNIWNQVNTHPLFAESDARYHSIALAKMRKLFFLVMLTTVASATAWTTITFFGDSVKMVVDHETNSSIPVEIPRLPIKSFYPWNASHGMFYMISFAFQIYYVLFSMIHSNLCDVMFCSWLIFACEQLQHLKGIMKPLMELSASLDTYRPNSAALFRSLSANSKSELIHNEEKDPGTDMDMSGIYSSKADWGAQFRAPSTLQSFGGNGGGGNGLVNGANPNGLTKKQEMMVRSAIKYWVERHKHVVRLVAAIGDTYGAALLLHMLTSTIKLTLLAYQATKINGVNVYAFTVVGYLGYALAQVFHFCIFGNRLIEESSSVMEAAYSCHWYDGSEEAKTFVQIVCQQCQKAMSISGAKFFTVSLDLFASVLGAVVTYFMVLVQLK
Procedure: The results of the in silico screen are provocative. However in order to verify whether these predictions were meaningful, functional evidence was obtained. In order to validate the success of the in silico predictions the responses of 9 Odor receptors using single-sensillum electrophysiology directly on the Drosophila melanogaster antenna were analyzed. For each Odor receptor several odorants were tested from the top 500 predicted hits. A sampling of ˜192 novel odorants were tested with ˜11-21 novel odorants tested for each receptor, which were scattered somewhat randomly within the top 500 predictions for each receptor, providing a relatively unbiased set of chemical structures.
To test identified compounds any number of biological assays can be used to measure ORN activity in the presence of a putative ligand/compounds. […] For the purpose of testing each of these volatile compounds the compounds were diluted to ˜10^−2 in paraffin oil or distilled water. The 9 Ors tested are expressed in well-defined olfactory receptor neurons (ORNs) housed within the large and small basiconic sensilla (ab1-ab7) on the antenna. A previously identified diagnostic panel of odorants was used to distinguish individual classes of sensilla (ab1-ab7) and therefore identified the sensilla that contained the target Or expressing ORN. […]

[1] = […], averaged across the top 2 responders of the 4 species

Molecule	Final Activity (CO2 responsive neurons; [1])	other results
OCCCCCO [1,5-pentanediol]	0	
CCCCCCBr [1-bromohexane]	3	
CCCCCCCl [1-chlorohexane]	8	
C=CC(O)CCCC (centres unmarked) [1-hepten-3-ol]	0	
CCCCCCS [1-hexanethiol]	3	
CCCCCCI [1-iodohexane]	3	
C=CC(O)CCCCC (centres unmarked) [1-octen-3-ol]	−27	
CC(=O)C(C)=O [2,3-butanedione]	−99	
CCC(=O)C(C)=O [2,3-pentanedione]	−55	
Cc1nc(C)c(C)s1 [2,4,5-trimethylthiazole]	5	
Cc1cnc(C)cn1 [2,5-dimethylpyrazine]	26	
Cc1ccc(C)s1 [2,5-dimethylthiophene]	−9	
CCCNCCO [2-(propylamino)-ethanol]	−39	
CC(=O)c1cccs1 [2-acetylthiophene]	31	
CCc1ncc(C)nc1C [2-ethyl-3,5-dimethylpyrazine]	8	
CCCCCC(C)O (centres unmarked) [2-heptanol]	−39	
CCCCC(C)O (centres unmarked) [2-hexanol]	2	
CCCCC(=O)C(C)C [2-methyl-3-heptanone]	−26	
Cc1ccccc1O [2-methylphenol]	24	
CCCCCCCC(=O)CC [3-decanone]	1	
CCCCC(O)CC (centres unmarked) [3-heptanol]	−16	
CC=C(C)CC [3-methyl-2-pentene]	5	
CCCCCCC(=O)CC [3-nonanone]	2	
CCCCCC(O)CC (centres unmarked) [3-octanol]	−14	
CSCCCC=O [4-(methylthio)-1-butanal]	−15	

Molecule	Final Activity (CO2 responsive neurons; [1])	other results
CCCC(=O)CCC [4-heptanone]	2	
CC(=O)CCO [4-hydroxy-2-butanone]	−11	
Cc1ccc(O)cc1 [4-methylphenol]	3	
CC(C)=CCCC(C)O (centres unmarked) [6-methyl-5-hepten-2-ol]	0	
CCC/C=C/C=O [(E)2-hexenal]	0	
CC(=O)O [Acetic Acid]		Final Activity (CO2 responsive neurons; in vivo): −7
COc1ccccc1 [Anisole]	6	
O=Cc1ccccc1 [Benzaldehyde]	6	
O=C(c1ccccc1)c1ccccc1 [Benzophenone]	8	
C=C(C)C1CC=C(C)C(=O)C1 (centres unmarked) [Carvone]	4	
CC(C)=CCCC(C)CC=O (centres unmarked) [Citronellal]	8	
O=C1CCCCC1 [Cyclohexanone]	48	
CCO [Ethanol]		Final Activity (CO2 responsive neurons; in vivo): −16
CCOC(C)=O [Ethyl Acetate]	8	
C=CCc1ccc(OC)c(OC)c1 [Eugenol Methyl Ether]	−9	
C=CCc1ccc(O)c(OC)c1 [Eugenol]	1	
CC12CCC(C1)C(C)(C)C2=O (centres unmarked) [Fenchone]	−2	
CC(C)=CCC/C(C)=C/CO [Geraniol]	8	
c1ccc2[nH]ccc2c1 [Indole]	21	
CC(=O)OCCC(C)C [Isoamyl Acetate]	−2	
CC(C)O [Isopropyl Alcohol]	3	
C=C(C)[C@H]1CC=C(C)CC1 [Limonene]	−2	
CC1CCC(C(C)C)C(O)C1 (centres unmarked) [Menthol]	−2	
CO [Methanol]	−14	
CSCCC=O [Methional]	0	

Molecule	Final Activity (CO2 responsive neurons; [1])	other results
CCCCCCCCCO [Nonanol]	−12	
CC(=O)c1ccccc1 [Phenylethanone]	5	
Cc1ccc(C(C)C)c(O)c1 [Thymol]	15	
CC(=O)c1ccccc1 [acetophenone]	15	
CCCC=O [butanal]	−85	
CCC(C)=O [butanone]	−25	
CCCCOC(C)=O [butyl acetate]		Final Activity (CO2 responsive neurons; in vivo): −28
CCCC(=O)O [butyric acid]	−94	
CCCC(=O)Cl [butyryl chloride]	−39	
C/C=C\CCC [cis-2-hexene]	5	
CC/C=C\CCO [cis-3-hexen-1-ol]	10	
CCCCC(=O)OCC [ethyl valerate]	5	
CC(=O)CF [fluoroacetone]	10	
CC1CCC(=O)O1 (centres unmarked) [gamma-valerolactone]	−5	
CCCCCCC=O [heptanal]	−21	
CCCCCCC [heptane]	−29	
CCCCCCC(=O)O [heptanoic acid]	−14	
CCCCCCCO [heptanol]	−38	
CCCCCCCOC(C)=O [heptyl acetate]	−8	
CCCCCC=O [hexanal]	−32	
CCCCCC [hexane]		Final Activity (CO2 responsive neurons; in vivo): −25
CCCCCC(=O)O [hexanoic acid]	−16	
CCCCCCO [hexanol]	−70	
CCCCCCOC(C)=O [hexyl acetate]	−12	
CCCCCC[SiH3] [hexylsilane]	3	

Molecule	Final Activity (CO2 responsive neurons; [1])	other results
CC(=O)OC(C)C [isopropyl acetate]		activation of odor receptor (firing rate) (Or59b, ab2A): > 250 spikes/sec
COCC(C)=O [methoxyacetone]	6	
COC(=O)C(C)=O [methyl pyruvate]	−100	
c1ccc2ccccc2c1 [naphthalene]	−14	
CCCCCCCC=O [octanal]	−20	
CCCCCCCC [octane]	−34	
CCCCCCCC(=O)O [octanoic acid]	−21	
CCCCCCCCO [octanol]	−35	
CCCCCCCCOC(C)=O [octyl acetate]	−15	
CCCCC=O [pentanal]	−51	
CCCCC [pentane]	−31	
CCCCC(=O)O [pentanoic acid]	−26	
CCCCCO [pentanol]	−41	
CCCCCOC(C)=O [pentyl acetate]	−15	
O=CCc1ccccc1 [phenylacetaldehyde]	3	
CCC=O [propionaldehyde]	−68	
CCC(=O)O [propionic acid]	−32	
CCC(=O)Cl [propionyl chloride]	−73	
c1cnccn1 [pyrazine]	−8	
c1ccncc1 [pyridine]		Final Activity (CO2 responsive neurons; in vivo): 99
CC(=O)C(=O)O [pyruvic acid]	2	
c1cscn1 [thiazole]	100	
butanol		Final Activity (CO2 responsive neurons; in vivo): −25

From patent US9307763B2, “Ligands for odor receptors and olfactory neurons” (The Regents of the University of California, priority 2010, dated 2016)
